The values that follow come from article PMC6367362, “MD001, a Novel Peroxisome Proliferator-activated Receptor α/γ Agonist, Improves Glucose and Lipid Metabolism” (Scientific Reports, 2019).

One data set concerns the target T1, PPARβ/δ (Homo sapiens, UniProt Q03181).
T1 construct: HA; made in house
T1 sequence (Q03181 1-441): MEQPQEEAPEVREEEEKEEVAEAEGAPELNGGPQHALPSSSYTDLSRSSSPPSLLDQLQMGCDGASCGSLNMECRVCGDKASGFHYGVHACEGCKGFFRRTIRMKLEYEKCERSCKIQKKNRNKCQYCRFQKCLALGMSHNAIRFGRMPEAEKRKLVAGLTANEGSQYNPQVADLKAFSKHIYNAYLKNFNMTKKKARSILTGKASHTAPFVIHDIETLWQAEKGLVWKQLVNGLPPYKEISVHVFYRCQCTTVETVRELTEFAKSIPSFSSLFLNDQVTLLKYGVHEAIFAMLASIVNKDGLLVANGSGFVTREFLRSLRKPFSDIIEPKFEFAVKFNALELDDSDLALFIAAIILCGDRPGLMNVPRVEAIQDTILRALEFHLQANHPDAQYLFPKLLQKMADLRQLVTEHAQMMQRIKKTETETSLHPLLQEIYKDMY
As to the kind of experiment: SPR analysis of binding to immobilised HA-PPARβ/δ. The note with it: N.B = No binding up to 500 μM. As for the experimental part: (§1) SPR analysis was performed using a Reichert SR7500DC (Reichert Technologies, Depew, NY, USA). HA-PPARα, HA-PPARβ/δ, and HA-PPARγ were purified as previously described[23] and was immobilised on CMDH chips (Reichert Technologies) according to the manufacturer’s instructions. MD001 was loaded in a dose-dependent manner (31.25, 62.5, 125, 250, and 500 μM) for the SPR assay. The dissociation constant (KD) value was determined using the Scrubber2 program (Informer Technologies, Inc., Los Angeles, CA, USA).

A further data set has as its target T2, PPARγ (Homo sapiens, UniProt P37231).
T2 construct: HA; made in house
T2 sequence (P37231 1-505): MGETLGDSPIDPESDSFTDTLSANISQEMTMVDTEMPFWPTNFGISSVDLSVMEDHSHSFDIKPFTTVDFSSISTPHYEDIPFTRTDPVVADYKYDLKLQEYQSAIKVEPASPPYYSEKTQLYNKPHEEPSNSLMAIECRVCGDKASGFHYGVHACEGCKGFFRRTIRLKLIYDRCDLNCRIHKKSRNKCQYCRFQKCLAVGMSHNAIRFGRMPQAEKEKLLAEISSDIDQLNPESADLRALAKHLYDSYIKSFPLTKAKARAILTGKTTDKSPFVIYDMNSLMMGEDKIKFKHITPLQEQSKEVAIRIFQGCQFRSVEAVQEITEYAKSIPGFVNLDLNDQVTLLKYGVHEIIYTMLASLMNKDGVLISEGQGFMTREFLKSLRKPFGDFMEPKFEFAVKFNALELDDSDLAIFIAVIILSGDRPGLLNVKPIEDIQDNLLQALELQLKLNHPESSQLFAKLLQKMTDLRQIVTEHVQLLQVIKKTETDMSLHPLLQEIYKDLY
As to the kind of experiment: SPR analysis of binding to immobilised HA-PPARγ. The following applies: MD001 31.25-500 μM. On the procedure: as §1

A further data set concerns HepG2 cells. As to the kind of experiment: In vitro glucose consumption assay, HepG2. Type of data set: cell-based, human. The note with it: 10, 50 μM, 24 h. On the procedure:
Figure 3 MD001 promotes glucose consumption by induction of GLUT expression. HepG2 (A), differentiated 3T3-L1 adipocytes (B), and differentiated C2C12 myotubes (C) were treated with vehicle, MD001 (10, 50 μM), or rosiglitazone (rosi, 10 μM) for 24 h; glucose consumption was examined as described in the Methods section. Cells were harvested for total RNA isolation. Relative expression levels of GLUT2 (D) and GLUT4 (E,F) were quantitated using qRT-PCR. *, **, and ^† vs. vehicle. Data represent the mean ± SD of three independent experiments. *P < 0.05, **P < 0.01, and ^†P < 0.01.
The glucose consumption assay was performed as previously described. Briefly, cells were treated with MD001 or rosiglitazone […]. The conditioned medium from cultured cells was harvested and assayed for glucose content using a Glucose Colorimetric Assay Kit II (BioVision Inc., Milpitas, CA, USA).

The test system of data set [1] is wild type C57BL/6J mice. As to the kind of experiment: Oral once-daily administration to wild type C57BL/6J mice. Type of data set: in vivo, mouse. As for the experimental part:
Supplementary Figure S6. MD001 has no influence on food intake of mice. (A) Wild type C57/BL6 mice were orally administered with vehicle, rosiglitazone (20 mg/kg), or MD001 (20 mg/kg) once a day for 60 days. The change in their body weight was evaluated and presented as gain of body weight per group (n = 5 - 6 in each group). (B) The 3-day food intake in wild type C57/BL6 mice or db/db mice during the administration of the indicated drug was measured three times (n = 5 - 6 in each group). The data represent the mean ± SD.
C57/BL6 mice. (A-H) Wild type C57/BL6 mice were administered with vehicle, rosiglitazone (20 mg/kg), or MD001 (20 mg/kg) (n = 5 in each group) for 60 days, and their blood metabolites were measured. (B) Blood glucose level was examined during the administration of the […]

Data set [2] deals with wild type C57BL/6J mice. As to the kind of experiment: Toxicity study in wild type C57BL/6J mice. The format is in vivo, mouse. The following applies: wild type C57/BL6 mice, 50 or 100 mg/kg MD001 for eight weeks. The source says:
Supplementary Table S4. Laboratory findings in control and MD001-treated mice
Results are expressed as the mean ( ± SD).
ALT, alanine transaminase; AST, aspartate transaminase; BUN, blood urea nitrogen; WBC, white blood cells.
Supplementary Table S5. Crystal data and structure refinement for 4a
Identification code exp_524
Empirical formula C27H22O5
Crystal system monoclinic

Setting [3] is: wild type C57BL/6J mice, 20 mg/kg, 60 days, compared to vehicle.
[4] abbreviates: wild type C57BL/6 mice, 20 mg/kg, 60 days.

The Kd is the free concentration of one partner at which half of the binding sites on the other are occupied at equilibrium, for simple one-to-one binding. With `Cc1c(O)cc(O)c2c(-c3ccccc3)c(C(=O)/C=C/c3ccccc3)c(=O)oc12` [MD001], the “KD (M), second row of Supplementary Table S3 (PPARβ/δ)” value on PPARβ/δ is “N.B”. Also, the affinity at PPARγ, expressed as Kd, was 140 ± 30 nM. Further, the glucose consumption entry with HepG2 cells is “significantly increased glucose consumption in a dose-dependent manner”. The body weight gain result in the data set on wild type C57BL/6J mice [1] (wild type C57BL/6J mice, once a day for 60 days) is “no induction of body weight gain”. Also, the “H&E staining of adipose tissue, skeletal muscle, and liver” value in the data set on wild type C57BL/6J mice [1] (wild type C57BL/6J mice, 20 mg/kg once a day for 60 days) was “no differences”. In the data set on wild type C57BL/6J mice [1] (setting [3]), the blood glucose entry is given as “did not have any effect” and the “levels of plasma lipids” value is “did not have any effect”. Also, in the data set with wild type C57BL/6J mice [1] (setting [4]), the “blood ALT levels” value is “no effect” and the “blood AST levels” value is recorded as “no effect”. Further, in the data set with wild type C57BL/6J mice [2], the “liver and kidney toxicities” value is given as “not observed”; the “white blood cell counts and haemoglobin (toxicology study)” value is “no differences”. The body weight change entry in the data set on wild type C57BL/6J mice [2] (data not shown) was “no significant differences”.
